Assay results reported in publication PMC8036666, “Biological and Physico-Chemical Characteristics of Arginine-Rich Peptide Gemini Surfactants with Lysine and Cystine Spacers” (International Journal of Molecular Sciences, 2021).
≈ marks a conversion by molar mass, not a printed value. Where “and” joins values, the source holds several entries; their conditions need not be identical. Identical values can stand only once. Like-named read-outs stand apart in the source and are kept apart here. Where a SMILES comes first, the peptide text is derived from it. Bridges are numbered along the chain shown (N, C = ends). Roman numbers before positions name the chains, in order. [ ]: non-standard residue; d: D form. The star is where a group is joined. Myristoyl = CCCCCCCCCCCCCC(=O)*; Lauroyl = CCCCCCCCCCCC(=O)*; Decanoyl = CCCCCCCCCC(=O)*; Nle = CCCC[C@H](N)C(=O)O; Octanoyl = CCCCCCCC(=O)*

Legend:
[1] = Lipopeptide hydrophobicity by RP-HPLC (adjusted retention time); type: physicochemical; conditions: for Adjusted Retention Time: RP-HPLC, 20–65% acetonitrile over 30 min, indicator of hydrophobicity; for Difference in retention time calculated as tR’C—tR’B: between corresponding surfactants of series C and B
Experimental: (§1) The identity of the purified peptides was confirmed with electrospray ionization mass spectrometry (ESI-MS) in positive ion mode. Results of MS analyses and net charge are attached in Supplementary Materials (Table S1). Peptides’ hydrophobicity was evaluated by analytical reversed-phase high-performance liquid chromatography (RP-HPLC). The critical aggregation concentrations (CACs) of the lipopeptides were determined in unbuffered aqueous solution at 298 K by measuring the surface tension as a function of lipopeptide concentration. The measurements were carried out by the Du Noüy ring method on a K100 tensiometer. The surface tension data were plotted against the logarithm of lipopeptide concentration. CAC was found as the intersection of two lines being linear regression of data below and above CAC.
Lipopeptide hydrophobicity was determined as described previously. To do this, a Waters Alliance e2695 system with a Waters 2998 PDA Detector (software-Empower 3, Waters, Milford, MA, USA) was used. All analyses were carried out on a Waters X-Bridge Shield RP-18 column (3.0 × 100 mm, 3.5 μm particle size, 130 Å pore size). The Shield Technology column with embedded polar groups was used to minimize interactions of unreacted silanol groups with basic lipopeptides. The peptides were dissolved in water (0.1% TFA, v/v) up to a concentration of 1 mg/mL. UV detection at 214 nm was used, and samples (10 μL) were eluted with a linear 20–65% acetonitrile gradient in deionized water over 30 min at 25.0 ± 0.1 °C. The mobile phase flow rate was 0.5 mL/min. Both eluents contained 0.1% (v/v) of TFA. Each peptide sample was analyzed in triplicate. The maximum standard deviation and coefficient of variation were 0.044 and 0.85%, respectively.

[2] = Critical aggregation concentration by surface tension (Du Noüy ring, K100 tensiometer); type: physicochemical; conditions: for CAC / Surface Tension at CAC: unbuffered aqueous solution, 298 K
Experimental: as §1
The critical aggregation concentration (CAC) values were determined fully automatically using a K100 tensiometer (KRUSS, Hamburg, Germany) equipped with two micro dosimeters by measuring the surface tension vs. lipopeptide concentration. The measurements were performed in unbuffered aqueous solution at 298 K using the Du Noüy ring method. The accuracy of the surface tension measurements was 0.1 mN/m. The critical aggregation concentration (CAC) was defined as the intersection of two lines fitted to the experimental data collected before and after the inflection point.

[3] = test system: human red blood cells (hRBCs); experiment: Hemolysis assay; type: cell-based; conditions: 1 h
Experimental: The hemolysis assay was performed by using the method reported previously. Fresh human red blood cells (hRBCs) with anticoagulant (EDTA) were rinsed three times with a PBS by centrifugation at 800× g for 10 min and diluted with PBS. The compounds were serially diluted on a 96-well microtiter polystyrene plate, and hRBCs were added up to a final volume of 100 μL. The compound concentration ranged between 0.5 and 256 μg/mL and the final hRBCs concentration was 4% (v/v). Controls for zero (blank) and 100% hemolysis consisted of hRBCs suspended in PBS and 1% of Triton-X 100 (Carl Roth GmbH, Karlsruhe, Germany), respectively. The plate was incubated for 1 h at 37 °C and then centrifuged (800× g, 10 min, 4 °C). Subsequently, the supernatant was […] to new microtiter plates, and the absorbance at 540 nm was measured (Multiskan GO Microplate Spectrophotometer, Thermo Fisher Scientific, Vantaa, Finland). All experiments were conducted in triplicate. HC50 was calculated using an ic50.tk tool. The protocol of the study was approved by the local Bioethics Committee at the Medical University of Gdańsk (NKBBN/262/2019, approval date: 10 June 2019).

HaCaT cells = type: cell-based, human; conditions: 24 h
Experimental: Cells were trypsinized, and the medium was renewed 2–3 times per week. The cytotoxicity of compounds was assessed by the determination of cell metabolic activity by colorimetric CellTilter 96® Aqueous One Solution Cell Proliferation Assay (Promega, Madison, WI, USA), according to the manufacturer’s instructions. […] Every compound was medium-soluble in 37 °C; thus, the control cells were cultured with the medium. Serial dilutions of the tested compounds were always prepared prior to use. Cells were incubated with drugs for 24 h, and then, 20 μL of the CellTiter 96®AqueousOne Solution Reagent was added to each well containing cells maintained in 100 μL of culture medium.

[4] = test system: Acinetobacter baumannii ATCC BAA 1605
Experimental: (§2) The Acinetobacter baumannii ATCC BAA-1605, Enterococcus faecium ATCC 700221, Escherichia coli ML-35 ATCC 43827, Klebsiella aerogenes ATCC 13048, Klebsiella pneumoniae ATCC 700603, Pseudomonas aeruginosa ATCC 9027, Staphylococcus aureus ATCC 25923, Staphylococcus aureus ATCC 33591, Candida albicans ATCC 10231, Candida glabrata ATCC 15126, strains were acquired from the American Type Culture Collection (ATCC). All the strains were stored at −80 °C in Roti-Store cryo vials and before the tests were transferred into fresh Mueller–Hinton broth (MHB, Biocorp, Warsaw, Poland) for bacteria or RPMI-1640 (Sigma-Aldrich, Steinheim, Germany) for fungi and incubated for 24 h at 37 °C. Then, the cultures were seeded on the Mueller–Hinton agar (BioMaxima, Lublin, Poland) or Sabouraud dextrose agar (SDA, BioMaxima, Lublin, Poland) plates, respectively, and incubated as just mentioned. These agar cultures were used for further microbiological assays. Cell densities for all assays were adjusted spectrophotometrically (Multiskan GO Microplate Spectrophotometer, Thermo Fisher Scientific, Vantaa, Finland) at 600 and 530 nm for bacteria and fungi, respectively.
(§3) The MICs were determined by the broth microdilution method according to the Clinical and Laboratory Standard Institute guidelines. […] The experiments were conducted on 96-well microtiter polystyrene plates (Kartell, Noviglio, Italy). The growth was assessed visually after incubation, and the MIC was assumed as the lowest peptide concentration at which a noticeable growth of microorganisms was inhibited. All experiments were conducted in triplicate.

[5] = test system: Enterococcus faecium ATCC 700221
Experimental: as §2, §3

[6] = test system: Klebsiella aerogenes ATCC 13048
Experimental: as §2, §3

[7] = test system: Klebsiella pneumoniae ATCC 700603
Experimental: as §2, §3

[8] = test system: Pseudomonas aeruginosa ATCC 9027
Experimental: as §2, §3

[9] = test system: Staphylococcus aureus ATCC 25923
Experimental: as §2, §3

MIC Acinetobacter baumannii ATCC BAA 1605 ([4]; ATCC BAA 1605, 24 h) [µg/mL]	MIC Enterococcus faecium ATCC 700221 ([5]; ATCC 700221, 24 h) [µg/mL]	MIC Klebsiella aerogenes ATCC 13048 ([6]; ATCC 13048, 24 h)	MIC Pseudomonas aeruginosa ATCC 9027 ([8]; ATCC 9027, 24 h) [µg/mL]	SMILES	Adjusted Retention Time [1] [min]	Difference in retention time calculated as tR’C—tR’B [1] [min]	CAC [2]	Surface Tension at CAC [2] [mN/m]	HC50 ([3]; red cells of human) [µg/mL]	IC50 (HaCaT cells) [µg/mL]	MIC Klebsiella pneumoniae ATCC 700603 ([7]; ATCC 700603, 24 h)	MIC Staphylococcus aureus ATCC 25923 ([9]; ATCC 25923, 24 h) [µg/mL]	MIC Staphylococcus aureus ATCC 25923 ([9]; planktonic culture) [µg/mL]	MIC Klebsiella pneumoniae ATCC 700603 ([7]; planktonic culture) [µg/mL]	further results
64 (≈ 52.1 µM)	2 (≈ 1.63 µM)	32 µg/mL (≈ 26.1 µM)	8 (≈ 6.52 µM)	CCCCCCCCCCCC(=O)N[C@@H](CCCNC(=N)N)C(=O)N[C@@H](CCCNC(=N)N)C(=O)N[C@@H](CSSC[C@H](NC(=O)[C@H](CCCNC(=N)N)NC(=O)[C@H](CCCNC(=N)N)NC(=O)CCCCCCCCCCC)C(N)=O)C(N)=O [Compound C3] (I: Lauroyl-Arg-Arg-Cys-NH2 / II: Lauroyl-Arg-Arg-Cys-NH2; disulfide I:3-II:3)	19.24	0.15	0.25 mM and 305.4 μg/mL	43	36.24 ± 2.35	119.47 ± 6.03 (≈ 97.3 µM)	>256 (−/−) µg/mL	4 (≈ 3.26 µM)	–	–	–
32 (≈ 24.9 µM)	8 (≈ 6.23 µM)	128 µg/mL (≈ 99.7 µM)	64 (≈ 49.9 µM)	CCCCCCCCCCCCCC(=O)N[C@@H](CCCNC(=N)N)C(=O)N[C@@H](CCCNC(=N)N)C(=O)N[C@@H](CSSC[C@H](NC(=O)[C@H](CCCNC(=N)N)NC(=O)[C@H](CCCNC(=N)N)NC(=O)CCCCCCCCCCCCC)C(N)=O)C(N)=O [Compound C4] (I: Myristoyl-Arg-Arg-Cys-NH2 / II: Myristoyl-Arg-Arg-Cys-NH2; disulfide I:3-II:3)	25.30	-0.03	0.06 mM and 71.1 μg/mL	47	20.89 ± 1.06	54.52 ± 15.40 (≈ 42.5 µM)	>256 (−/−) µg/mL	–	64 (≈ 49.9 µM)	–	–
–	–	–	–	CCCCCCCC(=O)N[C@@H](Cc1ccccc1)C(=O)N[C@@H](CCCNC(=N)N)C(=O)N[C@@H](CCCNC(=N)N)C(=O)N[C@@H](CSSC[C@H](NC(=O)[C@H](CCCNC(=N)N)NC(=O)[C@H](CCCNC(=N)N)NC(=O)[C@H](Cc1ccccc1)NC(=O)CCCCCCC)C(N)=O)C(N)=O [Compound C5] (I: Octanoyl-FRRC-NH2 / II: Octanoyl-FRRC-NH2; disulfide I:4-II:4)	15.42	0.23	2.58 mM and 3632.7 μg/mL	37	–	–	–	–	2 (≈ 1.42 µM)	32 (≈ 22.7 µM)	HC50 ([3]; hRBCs 4% (v/v), 37 °C): 117.06 ± 4.60 µg/mL; IC50 (HaCaT cells; HaCaT, MTS): 146.63 ± 14.95 µg/mL (≈ 104 µM); MIC Acinetobacter baumannii ATCC BAA 1605 ([4]; planktonic culture): 32 µg/mL (≈ 22.7 µM); MIC Enterococcus faecium ATCC 700221 ([5]; planktonic culture): 2 µg/mL (≈ 1.42 µM); MIC Klebsiella aerogenes ATCC 13048 ([6]; planktonic culture): 128 µg/mL (≈ 90.8 µM); MIC Pseudomonas aeruginosa ATCC 9027 ([8]; planktonic culture): 8 µg/mL (≈ 5.67 µM)
32 (≈ 23.8 µM)	2 (≈ 1.49 µM)	256 (−/−) µg/mL	8 (≈ 5.96 µM)	CCCCCCCC(=O)N[C@@H](CCCC)C(=O)N[C@@H](CCCNC(=N)N)C(=O)N[C@@H](CCCNC(=N)N)C(=O)N[C@@H](CSSC[C@H](NC(=O)[C@H](CCCNC(=N)N)NC(=O)[C@H](CCCNC(=N)N)NC(=O)[C@H](CCCC)NC(=O)CCCCCCC)C(N)=O)C(N)=O [Compound C6] (I: Octanoyl-[Nle]RRC-NH2 / II: Octanoyl-[Nle]RRC-NH2; disulfide I:4-II:4)	14.29	0.33	4.28 mM and 5737.7 μg/mL	35	>256	248.83 ± 18.81 (≈ 185 µM)	–	2 (≈ 1.49 µM)	–	64 (≈ 47.7 µM)	–

SMILES	MIC Acinetobacter baumannii ATCC BAA 1605 ([4]; ATCC BAA 1605, 24 h) [µg/mL]	MIC Enterococcus faecium ATCC 700221 ([5]; ATCC 700221, 24 h) [µg/mL]	MIC Klebsiella aerogenes ATCC 13048 ([6]; ATCC 13048, 24 h)	MIC Pseudomonas aeruginosa ATCC 9027 ([8]; ATCC 9027, 24 h) [µg/mL]	Adjusted Retention Time [1] [min]	Difference in retention time calculated as tR’C—tR’B [1] [min]	CAC [2]	Surface Tension at CAC [2] [mN/m]	HC50 ([3]; red cells of human) [µg/mL]	IC50 (HaCaT cells) [µg/mL]	MIC Klebsiella pneumoniae ATCC 700603 ([7]; ATCC 700603, 24 h)	MIC Staphylococcus aureus ATCC 25923 ([9]; ATCC 25923, 24 h) [µg/mL]	MIC Staphylococcus aureus ATCC 25923 ([9]; planktonic culture) [µg/mL]	MIC Klebsiella pneumoniae ATCC 700603 ([7]; planktonic culture) [µg/mL]	further results
CCCCCCCCCC(=O)N[C@@H](CCCNC(=N)N)C(=O)N[C@@H](CCCNC(=N)N)C(=O)N[C@@H](CSSC[C@H](NC(=O)[C@H](CCCNC(=N)N)NC(=O)[C@H](CCCNC(=N)N)NC(=O)CCCCCCCCC)C(N)=O)C(N)=O [Compound C2] (I: Decanoyl-Arg-Arg-Cys-NH2 / II: Decanoyl-Arg-Arg-Cys-NH2; disulfide I:3-II:3)	16 (≈ 13.7 µM)	2 (≈ 1.71 µM)	128 µg/mL (≈ 109 µM)	8 (≈ 6.83 µM)	13.94	0.21	3.30 mM and 3832.7 μg/mL	43	>256	231.17 ± 24.37 (≈ 197 µM)	>256 (−/−) µg/mL	2 (≈ 1.71 µM)	–	–	–
CCCCCCC(CCCC)C(=O)N[C@@H](CCCNC(=N)N)C(=O)N[C@@H](CCCNC(=N)N)C(=O)N[C@@H](CSSC[C@H](NC(=O)[C@H](CCCNC(=N)N)NC(=O)[C@H](CCCNC(=N)N)NC(=O)C(CCCC)CCCCCC)C(N)=O)C(N)=O (stereo partly shown) [Compound C7]	32 (≈ 26.1 µM)	2 (≈ 1.63 µM)	16 µg/mL (≈ 13 µM)	4 (≈ 3.26 µM)	14.83	0.15	6.21 mM and 7628.1 μg/mL	35	>256	163.98 ± 13.66 (≈ 134 µM)	32 µg/mL (≈ 26.1 µM)	2 (≈ 1.63 µM)	–	–	increase in the CAC value by branching of the acyl chains ([2]; C7 compared with C3): ca. 25 fold
